Patent US20230255975A1, “METHODS FOR TREATING CANCER WITH COMBINATION THERAPIES” (Celgene Corporation, priority 2020, published 2023)
pIC50: −log10 of the molar value.

Legend:
Assay type in all cases: cell-based
[1] = system: K12PE cell line; experiment: Proliferation assay; settings: for Synergy analysis (Calcusyn) of combination with JQ1 on proliferation: K12PE cells, in combination with JQ1
Method: (§1) Proliferation and viability assays: Cell growth curves were determined by monitoring the viability of cells with Trypan blue exclusion on a Vi-Cell-XR (Becton Dickinson, Franklin Lakes, N.J., USA). Proliferation assays were performed in triplicate at least three times (n=3) using (3H)-thymidine incorporation. All data were plotted and analyzed using GraphPad Prism 7 (GraphPad Software, La Jolla, Calif., USA) software, represented as the mean with an error determined as ±s.d.
(§2) Proliferation and viability assay. Cell growth curves were determined by monitoring the viability of cells with Trypan blue exclusion on a Vi-Cell-XR (Becton Dickinson, Franklin Lakes, N.J., USA). Cell lines were plated in triplicate in 96-well round-bottom plates with the indicated drug concentrations or knockdown cells. […] All data were plotted and analyzed using GraphPad Prism 7 (GraphPad Software, La Jolla, Calif., USA) software, represented as the mean with an error determined as ±s.d.

[2] = system: AMO1 cells; experiment: Apoptosis by Annexin V and Topro staining; settings: AMO-1 cells
Method: (§3) Flow cytometry: Annexin-V Alexa Fluor 488-conjugated antibody (Thermo Scientific, Waltham, Mass., USA) and To-Pro-3 (Thermo Scientific, Waltham, Mass., USA) were used according to the manufacturer's protocol and processed using Flow Jo software for at least three independent experiments. For cell cycle analysis, cells were stained with Propidium Iodide (PI) staining kit (Abcam, Cambridge, Mass., USA) and analysis was performed on Flow Jo V10 software. Staining of mitotic marker pHH3-Ser^10 was also performed by pHH3-Ser^10 and PI dual staining.
(§4) The PLK1 inhibitor BI2536 and Compound 5 were tested for their activity as individual agents and in combination in AMO1 parental and AMO1-PR cell lines. […] Changes in apoptosis were analyzed using the single agent treatments and their combination using Annexin V and Topro staining. […] Changes in Ikaros and pro-survival signaling in these cell lines was analyzed in response to BI2536 and Compound 5 after 24 and 72 hours of treatment (FIG. 5K).

[3] = system: AMO1-PR cells; experiment: Apoptosis by Annexin V and Topro staining
Method: as §3, §4

[4] = system: AMO1-PR (pomalidomide resistant) cell line; experiment: Proliferation assay; settings: for Synergy with trametinib on proliferation: in combination with trametinib
Method: as §1, §2

[5] = system: K12PE-PR cell line; experiment: Proliferation assay; settings: Pom resistant K12PE-PR; in combination with JQ1
Method: as §1, §2

[6] = system: AMO1 cell line; experiment: Proliferation assay; settings: AMO1; for Synergy with trametinib on proliferation: in combination with trametinib
Method: as §1, §2

[7] = system: AMO1 NEK2 shRNA (NEK2 knocked-down) cells; experiment: Proliferation assay in NEK2 knocked-down cells
Method: (§5) Proliferation and viability assay. Cell growth curves were determined by monitoring the viability of cells with Trypan blue exclusion on a Vi-Cell-XR (Becton Dickinson, Franklin Lakes, N.J., USA). Cell lines were plated in triplicate in 96-well round-bottom plates with the indicated drug concentrations or knockdown cells. Proliferation assays were performed in triplicate at least three times (n=3) using either the WST-1 tetrazolium salt (Roche Applied Science) reagent used according to the manufacturer's specifications or by (3H)-thymidine incorporation as previously described (Bjorklund et al., Blood Cancer Journal 5, e354, 2015). All data were plotted and analyzed using GraphPad Prism 7 (GraphPad Software, La Jolla, Calif., USA) software, represented as the mean with an error determined as ±s.d.
(§6) To further confirm the synergistic effect, shRNA knockdown was combined with either Compound 5 or Compound 6 treatment. Expression of control and NEK2 shRNA in AMO1 cell lines was induced, followed by exposure of the cells to increasing concentrations of Compound 5 and Compound 6. The results were measured through a proliferation assay.

[8] = system: AMO1 control shRNA cells; experiment: Proliferation assay in control shRNA cells; settings: Homo sapiens, AMO1, read-out: IC50, proliferation
Method: as §5, §6

SMILES	Activity in biallelic P53 cell line compared to P53-wild type cells ([1]; K12PE vs AMO1, FIG. 7B)	late apoptosis ([2]; vehicle 2.24%)	early apoptosis ([2]; vehicle 2.69%)	late apoptosis ([3]; vehicle 2.77%)	early apoptosis ([3]; vehicle 3.82%)	Synergy analysis (Calcusyn) of combination with JQ1 on proliferation [1]	Synergy with trametinib on proliferation [4]	Synergy of combination with JQ1 on proliferation [5]	Synergy with trametinib on proliferation [6]	pIC50 ([7]; Homo sapiens, NEK2 knocked-down AMO1 cells)	Increase of activity by NEK2 knockdown in comparison to control shRNA cell line ([7]; IC50 control cells vs NEK2 knocked-down cells)	Synergy (Calcusyn) with NEK2 inhibitors (JH295 and rac-CCT 250863) on proliferation ([4]; NEK2 inhibitor 0.016-10 μM)	Combination analysis (Calcusyn) with YM155 on proliferation ([4]; in combination with YM155)	Synergy (Calcusyn) with NEK2 inhibitors (JH295 and rac-CCT 250863) on proliferation ([6]; NEK2 inhibitor 0.016-10 μM)	Combination analysis (Calcusyn) with YM155 on proliferation ([6]; in combination with YM155)	pIC50 [8]
CC[C@@H]1C(=O)N(C)c2cnc(Nc3ccc(C(=O)NC4CCN(C)CC4)cc3OC)nc2N1C1CCCC1 [BI2536, (R)-4-((8-cyclopentyl-7-ethyl-5-methyl-6-oxo-5,6,7,8-tetrahydropteridin-2-yl)amino)-3-methoxy-N-(1-methylpiperidin-4-yl)benzamide]	higher activity	4.25%	10.9%	7.55%	23.2%											
Nc1cccc2c1CN(C1CCC(=O)NC1=O)C2=O (centres unmarked) [Compound 2, 3-(4-amino-1-oxo-1,3 dihydro-isoindol-2-yl)-piperidine-2,6-dione]						synergistic	strong synergy	synergistically decreased proliferation	strong synergy							
N#Cc1ccc(N2CCN(Cc3ccc(COc4cccc5c4CN([C@H]4CCC(=O)NC4=O)C5=O)cc3)CC2)c(F)c1 [Compound 6, (S)-4-(4-(4-(((2-(2,6-dioxopiperidin-3-yl)-1-oxoisoindolin-4-yl)oxy)methyl)benzyl)piperazin-1-yl)-3-fluorobenzonitrile]						synergistic	strong synergy	synergistically decreased proliferation	strong synergy	8.54	10 fold	strong synergy	synergistic activity	strong synergy	synergistic activity	7.53
